Experimental data from US20240327364A1, “THERAPEUTIC TARGETING OF GPR68 TO INDUCE FERROPTOSIS” (University Of Maryland, Baltimore, priority 2023, published 2024).
Like-named read-outs stand apart in the source and are kept apart here.

Columns and labels:
[1] = biological target: T1, GPR68/OGR1 (Homo sapiens, UniProt Q15743); assay: CHEM1-OGR1 cells Fluo-8 calcium assay, acidified media pH 6.4; assay type: cell-based
T1 construct: host or cells: Chem-1 (CHEM1-OGR1) cells
Experimental: Briefly, the methods were: On the day before the assay 20,000 cells per well of CHEM1-OGR1 cells were plated in 10% DMEM containing 10% FBS and 1% Pen/Strep into a 96 well plate. After 24 hours media was removed and cells were stained with 80 μL Fluo-8 calcium indicator dye according to manufacturer's protocol. After staining cells were treated with 20 uL of 4× concentration of test compounds. Using kinetic imaging in the Lionheart HCS fluorescence intensity was continuously measure at 10 frames per second, for 5 seconds before 100 μL of acidified media was added to the well resulting in a pH of 6.4. A ratio of fluorescence intensities prior to addition and at peak were calculated and averaged. The resulting data were platted and using a 4 parameter logistic regression EC50 (the concentration causing 50% effective inhibition) for each test compound was determined.

[2] = biological target: T2, AURKC (Homo sapiens, UniProt Q9UQB9); assay: KinomeScan; assay type: binding; settings: read-out: % Control
T2 construct: purchased DiscoveRx (Fremont, CA)

[3] = biological target: T3, HUNK (Homo sapiens, UniProt P57058); assay: KinomeScan; assay type: binding; settings: read-out: % Control
T3 construct: purchased DiscoveRx (Fremont, CA)

[4] = biological target: T4, PRKX (Homo sapiens, UniProt P51817); assay: KinomeScan; assay type: binding; settings: read-out: % Control
T4 construct: purchased DiscoveRx (Fremont, CA)

[5] = biological target: T5, RSK1(Kin.Dom.1-N-terminal) (Homo sapiens, UniProt Q15418); assay: KinomeScan; assay type: binding; settings: read-out: % Control
T5 construct: RSK1(Kin.Dom.1-N-terminal); purchased DiscoveRx (Fremont, CA)

[6] = biological target: T6, TAOK1 (Homo sapiens, UniProt Q7L7X3); assay: KinomeScan; assay type: binding; settings: read-out: % Control
T6 construct: purchased DiscoveRx (Fremont, CA)

[7] = biological target: T7, CCR7 (Homo sapiens, UniProt P32248); assay: GPCR Profiler; assay type: cell-based
T7 construct: host or cells: Chem-1 cells with Gα15

[8] = biological target: T8, CRF2 (Homo sapiens, UniProt Q13324); assay: GPCR Profiler; assay type: cell-based
T8 construct: host or cells: Chem-1 cells with Gα15

[9] = biological target: T9, sst3 (Homo sapiens, UniProt P32745); assay: GPCR Profiler; assay type: cell-based
T9 construct: host or cells: Chem-1 cells with Gα15

[10] = test system: human pulmonary artery endothelial cells (HPAECs); assay: Cyclic stretch-triggered endothelial cell activation; assay type: cell-based; settings: for Rho activation by 18% cyclic stretch: OGM2 at 5 μM, OGM1 at 3 μM, Rho-GTP pulldown
Experimental: FIG. 33A through FIG. 33D: Cyclic stretch-triggered endothelial cell (EC) activation is abolished by OGM2 and OGM1. FIG. 33A: In human pulmonary artery endothelial cells (HPAECs), pretreatment with OGMs (OGM2 at 5 μM and OGM1 at 3 μM) abolished Rho activation by 18% cyclic stretch (18% CS), as determined by Rho-GTP pulldown assay. ST, static condition. FIG. 33B: Treatment with OGM2 or OGM1 blocked CS-triggered activation of myosin phosphatase target (MYPT) and myosin light chain (MLC) in ECs, as determined by their phosphorylation MYPT and MLC. FIG. 33C: OGM2 or OGM1 blocked CS-induced TNF-α mRNA expression in ECs. n=3, ^#P<0.05 versus ST, *P<0.05 versus 18% CS. Error bars, standard deviation. FIG. 33D: OGM2 and OGM1 blocked CS-induced VCAM-1 expression in ECs. Here, OGM=OGM2.

[11] = biological target: GPR68 (Homo sapiens, UniProt Q15743); assay: Chem1-OGR1 cells washout (reversibility); assay type: cell-based; set-up: host or cells: Chem-1 cells (Chem1-OGR1); settings: for reversibility of GPR68 inhibition: washout
Experimental: Chem1-GPR68 reporter cells were treated with 20 uM OM8345 for 2 hours and then rinsed with HBSS. […] The GPR68 inhibitory activity of OGM analogs segregated with the ability of the molecule to induce the phenotype in zebrafish.
Additional experiments, whereby OGM2 was resynthesized and used (due to its submicromolar potency and GPR68 specificity) were performed. See FIG. 6A (HNMR of resynthesis of OGM2) and FIG. 6B (LCMS of resynthesis of OGM2). To test the possibility of OGM2 being an irreversible inhibitor, Chem1-OGR1 cells (Millipore™) were incubated with 10 μM OGM2 for 4 hours, and after removing the compound stimulated with pH 6.4 medium. […] Time till 50% max ˜52 minutes. The signal returned back towards baseline uninhibited levels in a rapid and time-dependent manner.

[12] = test system: WM115; assay: Agarose drop assay; assay type: cell-based, human; settings: OGM2 5 μM, 5 days
Experimental: WM115 cells were trypsinized and resuspended at 100,000 cells per mL in low melt agarose. A 10 μl drop of the cell mixture was added to 12-well plate. After solidifying Normal culture media was added with either DMSO 0.5% or OGM2 5 μM. The area around the agarose drop was visualized manually with light microscopy. The cells were incubated for 5 days and visualized. Cells outside of the agarose drop were visualized and quantitated.
FIG. 12A is a schematic of the agarose drop assay. WM115 cells were mixed into a low melt agarose solution and single 10 μL drops were seeded onto cell culture plates. After solidifying, media containing OGM2 (5 μM) or CTL (DMSO […]) was added and wells were observed 5 days later. Immediately after media addition no cells are on the plate outside of the agarose gel in CTL or OGM2. Five days after seeding cells are observed outside of the gel (Black arrows) in CTL but not in OGM2. […] Quantification on the number of cells that escaped from an average of 5 gel drop replicates. FIG. 12B through FIG. 12D show the cells after media addition. No cells are on the plate outside of the agarose gel in CTL or OGM2. Five days after seeding, cells are observed outside of the gel (arrows) in CTL but not in OGM2.

[13] = test system: U87; assay: MitoTracker / TMRM staining; assay type: cell-based, human
Text: Lipid peroxidation associated with ferroptosis is known to disrupt mitochondrial membranes, resulting in smaller mitochondria.

[14] = concentration causing 50% effective inhibition of calcium response to pH 6.4, read-out: EC50

GPR68, sequence (Q15743 whole entry): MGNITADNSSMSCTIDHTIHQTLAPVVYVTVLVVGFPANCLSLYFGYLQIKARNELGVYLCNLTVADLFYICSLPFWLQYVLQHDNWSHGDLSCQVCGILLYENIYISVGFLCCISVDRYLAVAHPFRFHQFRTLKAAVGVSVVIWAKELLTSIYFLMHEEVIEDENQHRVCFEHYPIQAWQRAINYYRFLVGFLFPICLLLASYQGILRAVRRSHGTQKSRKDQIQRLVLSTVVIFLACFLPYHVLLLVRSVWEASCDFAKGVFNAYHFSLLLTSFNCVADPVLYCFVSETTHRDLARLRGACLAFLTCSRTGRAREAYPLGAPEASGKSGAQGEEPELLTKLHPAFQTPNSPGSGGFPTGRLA
T1 sequence (Q15743 whole entry): as above
T9 sequence (P32745 whole entry, species assumed): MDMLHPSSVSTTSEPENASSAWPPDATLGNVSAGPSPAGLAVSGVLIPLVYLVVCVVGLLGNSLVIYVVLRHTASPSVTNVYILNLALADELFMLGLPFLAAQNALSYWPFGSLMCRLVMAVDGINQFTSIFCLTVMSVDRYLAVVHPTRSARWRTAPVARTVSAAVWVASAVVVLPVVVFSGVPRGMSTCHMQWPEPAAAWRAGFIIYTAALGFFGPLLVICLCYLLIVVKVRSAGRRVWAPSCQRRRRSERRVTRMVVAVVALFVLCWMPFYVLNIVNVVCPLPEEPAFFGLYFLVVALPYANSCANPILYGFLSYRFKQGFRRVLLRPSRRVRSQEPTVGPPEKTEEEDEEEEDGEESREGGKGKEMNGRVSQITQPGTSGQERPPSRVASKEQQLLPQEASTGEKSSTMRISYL
T7 sequence (P32248 25-378, species assumed): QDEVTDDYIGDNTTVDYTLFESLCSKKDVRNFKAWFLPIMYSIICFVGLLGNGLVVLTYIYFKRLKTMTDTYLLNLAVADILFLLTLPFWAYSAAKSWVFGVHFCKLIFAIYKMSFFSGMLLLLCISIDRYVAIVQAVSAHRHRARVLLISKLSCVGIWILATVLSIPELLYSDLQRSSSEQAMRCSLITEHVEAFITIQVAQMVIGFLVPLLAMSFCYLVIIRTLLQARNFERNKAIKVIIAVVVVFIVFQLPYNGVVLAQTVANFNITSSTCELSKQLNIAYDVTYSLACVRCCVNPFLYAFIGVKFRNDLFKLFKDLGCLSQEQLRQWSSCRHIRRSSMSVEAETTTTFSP
T8 sequence (Q13324 whole entry): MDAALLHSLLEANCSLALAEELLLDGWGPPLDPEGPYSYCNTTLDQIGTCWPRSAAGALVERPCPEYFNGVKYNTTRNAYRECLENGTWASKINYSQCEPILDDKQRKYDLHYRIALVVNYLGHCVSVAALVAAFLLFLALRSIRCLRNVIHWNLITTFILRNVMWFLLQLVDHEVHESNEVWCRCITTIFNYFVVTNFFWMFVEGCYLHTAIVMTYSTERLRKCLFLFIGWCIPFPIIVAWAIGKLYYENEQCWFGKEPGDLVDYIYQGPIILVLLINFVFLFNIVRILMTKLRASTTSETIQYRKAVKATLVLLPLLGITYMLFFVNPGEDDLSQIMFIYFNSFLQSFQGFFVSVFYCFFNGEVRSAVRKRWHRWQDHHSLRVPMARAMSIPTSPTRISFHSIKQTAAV
T6 sequence (Q7L7X3 whole entry): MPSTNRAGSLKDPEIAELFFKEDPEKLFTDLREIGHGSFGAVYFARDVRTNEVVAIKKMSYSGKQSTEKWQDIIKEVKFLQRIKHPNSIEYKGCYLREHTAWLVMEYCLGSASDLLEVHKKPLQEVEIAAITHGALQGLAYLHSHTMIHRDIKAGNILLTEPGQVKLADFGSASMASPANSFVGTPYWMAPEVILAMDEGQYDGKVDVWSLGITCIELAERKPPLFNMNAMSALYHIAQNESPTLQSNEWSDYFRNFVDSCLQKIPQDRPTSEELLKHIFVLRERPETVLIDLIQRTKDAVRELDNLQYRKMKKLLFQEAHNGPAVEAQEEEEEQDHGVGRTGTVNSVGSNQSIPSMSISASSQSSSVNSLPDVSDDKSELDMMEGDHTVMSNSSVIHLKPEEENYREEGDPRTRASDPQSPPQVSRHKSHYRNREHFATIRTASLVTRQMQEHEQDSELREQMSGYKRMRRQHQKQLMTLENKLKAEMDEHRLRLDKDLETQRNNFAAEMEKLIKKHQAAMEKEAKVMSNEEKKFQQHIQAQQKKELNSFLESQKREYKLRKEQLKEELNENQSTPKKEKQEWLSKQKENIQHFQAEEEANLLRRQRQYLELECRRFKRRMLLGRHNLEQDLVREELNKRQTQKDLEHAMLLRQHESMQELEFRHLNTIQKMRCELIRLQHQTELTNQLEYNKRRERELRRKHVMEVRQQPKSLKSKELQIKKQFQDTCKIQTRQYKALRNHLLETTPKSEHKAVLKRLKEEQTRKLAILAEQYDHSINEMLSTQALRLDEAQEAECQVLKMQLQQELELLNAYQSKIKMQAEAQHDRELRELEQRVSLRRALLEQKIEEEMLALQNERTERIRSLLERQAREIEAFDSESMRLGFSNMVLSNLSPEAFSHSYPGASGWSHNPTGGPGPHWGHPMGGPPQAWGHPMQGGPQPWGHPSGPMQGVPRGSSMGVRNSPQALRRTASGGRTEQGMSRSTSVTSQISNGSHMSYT
T4 sequence (P51817 whole entry): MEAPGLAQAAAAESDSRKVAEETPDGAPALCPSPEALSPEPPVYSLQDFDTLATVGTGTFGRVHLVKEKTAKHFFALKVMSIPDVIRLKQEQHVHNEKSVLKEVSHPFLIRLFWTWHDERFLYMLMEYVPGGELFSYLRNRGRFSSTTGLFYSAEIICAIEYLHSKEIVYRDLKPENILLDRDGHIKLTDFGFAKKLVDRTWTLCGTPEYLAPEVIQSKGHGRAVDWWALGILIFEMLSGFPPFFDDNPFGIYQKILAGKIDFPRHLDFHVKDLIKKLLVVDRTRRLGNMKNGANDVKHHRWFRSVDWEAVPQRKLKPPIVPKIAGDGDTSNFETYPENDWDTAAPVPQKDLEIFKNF
T2 sequence (Q9UQB9 whole entry): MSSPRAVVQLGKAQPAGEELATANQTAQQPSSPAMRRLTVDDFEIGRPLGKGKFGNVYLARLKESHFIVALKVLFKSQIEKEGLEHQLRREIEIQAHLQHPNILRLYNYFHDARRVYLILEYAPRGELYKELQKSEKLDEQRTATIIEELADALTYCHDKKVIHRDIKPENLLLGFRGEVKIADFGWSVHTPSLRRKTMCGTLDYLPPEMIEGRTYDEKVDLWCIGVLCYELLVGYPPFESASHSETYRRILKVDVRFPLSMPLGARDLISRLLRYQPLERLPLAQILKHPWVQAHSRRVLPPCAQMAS
T3 sequence (P57058 whole entry): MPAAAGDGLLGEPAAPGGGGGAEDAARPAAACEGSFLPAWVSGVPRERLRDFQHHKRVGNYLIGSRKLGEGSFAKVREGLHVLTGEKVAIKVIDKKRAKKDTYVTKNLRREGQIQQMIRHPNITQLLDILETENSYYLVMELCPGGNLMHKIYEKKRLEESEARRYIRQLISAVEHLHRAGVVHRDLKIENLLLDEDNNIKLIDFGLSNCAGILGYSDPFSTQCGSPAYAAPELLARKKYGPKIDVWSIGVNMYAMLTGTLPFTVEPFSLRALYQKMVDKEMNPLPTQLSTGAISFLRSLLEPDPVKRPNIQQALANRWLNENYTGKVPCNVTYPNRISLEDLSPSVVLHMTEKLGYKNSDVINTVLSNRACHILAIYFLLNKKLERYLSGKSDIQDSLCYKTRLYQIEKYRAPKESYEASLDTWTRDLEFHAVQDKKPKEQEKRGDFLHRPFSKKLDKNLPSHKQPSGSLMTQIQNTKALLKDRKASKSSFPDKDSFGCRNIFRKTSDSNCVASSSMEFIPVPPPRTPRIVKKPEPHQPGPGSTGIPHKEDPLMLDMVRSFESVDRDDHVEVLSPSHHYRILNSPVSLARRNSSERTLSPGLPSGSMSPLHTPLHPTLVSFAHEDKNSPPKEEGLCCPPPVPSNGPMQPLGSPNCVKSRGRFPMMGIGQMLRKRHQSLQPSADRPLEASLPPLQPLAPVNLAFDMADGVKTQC
T5 sequence (Q15418 62-321 limits assumed): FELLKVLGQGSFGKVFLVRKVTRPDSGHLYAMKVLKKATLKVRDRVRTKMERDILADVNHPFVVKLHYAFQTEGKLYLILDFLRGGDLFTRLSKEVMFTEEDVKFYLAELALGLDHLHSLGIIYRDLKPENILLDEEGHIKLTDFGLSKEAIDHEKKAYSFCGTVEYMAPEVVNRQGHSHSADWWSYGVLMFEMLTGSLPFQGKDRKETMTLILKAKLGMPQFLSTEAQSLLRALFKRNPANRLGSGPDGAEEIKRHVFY

## CCc1ccc2c(c1)C1(NN=C(c3cccc4ccccc34)S1)C(=O)N2 (stereo not drawn) [OGM1, 5-ethyl-5′-naphthalen-1-ylspiro[1H-indole-3,2′-3H-1,3,4-thiadiazole]-2-one]
[1]; Table 5, read-out: GPR68
  EC50: 160 nM
[1]; [14]
  EC50: 306 nM
[2]
  remaining binding at 10 µM: 100%
[3]
  remaining binding at 10 µM: 83%
[4]
  remaining binding at 10 µM: 98%
[5]
  remaining binding at 10 µM: 78%
[6]
  remaining binding at 10 µM: 83%
[7]; 10 uM
  Antagonism: 4
[7]; 12.5 uM
  Agonism: 0
[8]; 10 uM
  Antagonism: −13.7
[8]; 12.5 uM
  Agonism: 0.6
[9]; 10 uM
  Antagonism: 0
[9]; 12.5 uM
  Agonism: 0
[10]
  CS-induced TNF-α mRNA expression: blocked
  CS-induced VCAM-1 expression: blocked
  Rho activation by 18% cyclic stretch: abolished
[11]
  reversibility of GPR68 inhibition: reversible inhibitor of GPR68

## CCc1ccc2c(c1)C1(NN=C(c3ccccc3)S1)C(=O)N2 (stereo not drawn) [OGM2]
[1]; Table 5, read-out: GPR68
  EC50: 710 nM
[1]; [14]
  EC50: 710 nM
[12]
  migration out of agarose drop: migrated significantly less than the vehicle treated cells
[13]
  mitochondrial membrane potential (TMRM): decreased mitochondrial membrane potential
[10]
  CS-induced TNF-α mRNA expression: blocked
  CS-induced VCAM-1 expression: blocked
  Rho activation by 18% cyclic stretch: abolished
[11]; recovery of GPR68 activity after washout, 10 μM OGM2 for 4 hours, pH 6.4 medium
  Time till 50% max: ~52 min
[11]
  reversibility of GPR68 inhibition: reversible and highly specific inhibitor of GPR68
[11]; listed as OM8345
  reversibility of GPR68 inhibition: reversible inhibition of GPR68
